Measured values from patent publication US11771659B2, “Treating disease and promoting weight loss by inhibiting the TMA/FMO3/TMAO pathway” (The Cleveland Clinic Foundation, priority 2017, dated 2023).

Legend:
[1] = test system: male leptin deficient ob/ob mice; assay: TMA lyase inhibition in leptin deficient ob/ob mice (Con vs Con+IMC); assay type: in vivo; details: 0.06% IMC in control diet, 16 weeks
Excerpt: 6-week-old male leptin deficient ob/ob mice were maintained on either control diet (Con) or control diet supplemented with 0.06% TMA lyase inhibitor iodomethyl choline (Con+IMC) for 16 weeks. Results are shown in FIG. 7(F-J): F) Plasma TMA and TMAO levels (uM); G) Body weight (g); H) Food consumption normalized to body weight (g of diet consumed per day per g of body weight); I) Glucose tolerance measured after 12 weeks on diet; and J) Mean oxygen consumption (VO2; ml/kg/hr) measured after 5 weeks on diet; n=6 mice/group.
FIG. 8A-F represents data from HFD model and G-K the Ob/Ob model. FIG. 8A,G. Principal co-ordinate analysis (PCoA) plot of microbiota profiles built from weighted Unifrac distances. Each point represents a single sample from a single mouse. Positions of points in space display dissimilarities in the microbiota, with points further from one another being more dissimilar. FIG. 8B,H. Barplot of cecal microbiota at the phylum level. Each bar represents an individual mouse and each color an individual phyla. FIG. 8C. Relative abundance of Firmicutes, Bacteroidetes and the Firmicutes to Baceteroidetes ratio for mice on HFD with or without IMC. […] Points extending beyond the lines are outliers defined as values greater or less than 1.5 times the interquartile range. […] FIG. 8E,J. Spearman's correlation between Akkermansia muciniphila and TMA/body weight. […]

[2] = test system: male C57BL6/J mice on 60% high fat diet; assay: TMA lyase inhibition in high fat diet-fed mice (HFD vs HFD+IMC); assay type: in vivo; details: 0.06% IMC in 60% high fat diet, 6-week-old male C57BL6/J mice
Experimental: 6-week-old male C57BL6/J mice were maintained on either 60% high fat diet (HFD) or HFD supplemented with 0.06% TMA lyase inhibitor iodomethyl choline (HFD+IMC) for weeks. Results are shown in FIG. 7 (A-E): A) Plasma TMA and TMAO levels (uM); B) Body weight (g); C) Food consumption normalized to body weight (g of diet consumed per day per g of body weight); D) Glucose tolerance measured after 12 weeks on diet; and E) Plasma insulin measured following an overnight fast (Fasted) or 4 hours postprandially (Fed); n=4-5 mice/group.
To determine the role of TMA and TMAO on diet-induced obesity, cohorts of 6-week-old male C57BL6/J mice fed HFD and HFD+IMC were supplemented with either 100 mM TMA in the drinking water (K-M) or 0.3% w/w TMAO in the diet (N-P). […] FIGS. 7K-P specifically show: K) Plasma TMA and TMAO levels (uM) after 6 weeks on diet and TMA supplementation; L) Body weight (g) over 12 weeks; M) Glucose tolerance measured after 10 weeks on diet and TMA supplementation; N) Plasma TMA and TMAO levels (uM) after 12 weeks on diet and TMAO supplementation; O) Body weight (g) over 20 weeks; and P) Glucose tolerance measured after 12 weeks on diet and TMAO supplementation. n=8-10 mice per diet group for all studies unless otherwise indicated. […] Statistical significance determined using student's t-test or two-way ANOVA where appropriate. […]

[3] = test system: G protein-coupled receptor trace amine-associated receptor 5 (TAAR5); details: Li et al., 2013; cited from earlier work

| SMILES | obesity driven by leptin deficiency [1] | obesity driven by high fat diet [2] | activation/recognition of TAAR5 [3] |
| --- | --- | --- | --- |
| C[N+](C)(CI)CCO [IMC, iodomethyl choline] | improves obesity | improves obesity | – |
| CN(C)C [TMA, trimethylamine] | – | – | known to activate |
| C[N+](C)(C)[O-] [TMAO, trimethylamine-N-oxide] | – | – | does not recognize |
